This is an account of results in patent US6911460B2, “Antiviral agents and methods of treating viral infections” (Vion Pharmaceuticals, Inc., priority 2001, dated 2005).

Where only a bound is given, the exact number is not on record here.

As a reminder, the EC90 is the concentration needed for an effect of 90%.

The subject of one series is HSV-2 (333). Put plainly: Virus yield assay, Triapine plus acyclovir against HSV-2. The class given is cell-based, herpes simplex virus. Conditions: for EC90: virus yield assay, 48 hr, combinations: ACV with fixed Triapine concentration. The method, then: (§1) To evaluate the antiviral activities of Triapine, acyclovir, and combination thereof, HeLa S3 cells are seeded in 25-cm^2 flasks and are used as host cells for virus infection (laboratory strains of virus HSV-1, HSV-2, wild type (Darby et al., (1982) Nature, 289, 81-3; Cheng, et al., Antimicrob. Agents Chemother. 18, 957-61, 1980). After a 1-hr adsorption period with virus at 5-10 plaque-forming units per cell, the monolayers are rinsed with phosphate-buffered saline, followed by the addition of 5 ml of growth medium containing various concentrations of drug. Concentrations of Triapine tested range from 0.1 to 1.0 micromolar where concentrations of acyclovir are from 1-50 micromolar. The cells are incubated at 37° C. for 48 hr and then are stored frozen at −70° C. until titration. The amounts of HSV contained in cells are determined with Vero cells using the methods described by Cheng et al. (Cheng, et al., Antimicrob. Agents Chemother. 18, 957-61, 1980).
(§2) The results of the above-test are presented in the following Table 1, below, which presents the antiviral activity of Triapine, at low, non-toxic clinically achievable concentrations of 0.3, 0.6 and 1.0 μM, in combination with acyclovir against HSV-1 (KOS) and HSV-2 (333) strains of herpes simplex virus in a virus yield assay. […] A greater than 4-fold decrease in the EC90 of ACV against HSV-2 is observed with 0.6 μM Triapine.

The next series relates to HSV-1 (KOS). The series is described as follows: Virus yield assay, Triapine plus acyclovir against HSV-1. The class given is cell-based, herpes simplex virus. Conditions: for EC90: virus yield assay, 48 hr, combinations: ACV with fixed Triapine concentration. How it is done:
as §1, §2

In series [1] the test system is acyclovir-resistant HSV strains. Conditions: in combination with acyclovir; cited from earlier work.
On the set-up of series [2]: dose or concentration left out as unconfirmed. As to conditions: cancer patients, 96-hour infusion; cited from earlier work.
For a further series, the system named is strain IIIB of HIV. The series is described as follows: Anti-HIV activity of Triapine combinations in HIV-infected MT-2 cells (MTT, isobolograms). It is filed as cell-based, HIV-1. Conditions: FIG. 4.
Series [3] is described as follows: Solubility in aqueous solution.
The test system of a further series is HIV-infected cells. Conditions: combined with 2′,3′-dideoxyinosine (DDI); cited from earlier work.

Procedure for strain IIIB of HIV: MT-2 cells infected with strain IIIB of HIV (wildtype, 3TC resistant, or AZT resistant) are used for determining antiviral activities (Bridges et al., Biochem. Pharmacol. Vol. 51, 731-36, 1996). Cells are infected with virus at a multiplicity of infection of 0.1 TCID50/ml and added to wells containing serial 2-fold dilutions of drugs. MT-2 cells in RPMI 1640 medium supplemented with 10% dialyzed fetal bovine serum and 100 μg/mL Kanamnycin are infected with virus and immediately added to serial dilutions of the drugs. After 5 days, 20 μL of MTT dye (2.5 mg/mL in PBS) is added per well. At the end of the 4-h incubation period, 150 μL of acidified 2-propanol with 2% NP-40 nonionic detergent is added per well. After the crystals of dye are dissolved (usually 1-2 days), the plates are read on a microplate reader. Using this MTT-dye reduction method (Larder et al., (1990), Antimicrob. Agents Chemother. 34, 436-41), the percentage of protection can be calculated from the formula [(a−b)/(c−b)×100] in which a is the A595 of drug-treated virus-infected wells, b is the A595 of no-drug infected cells, and c is the A595 of the no-drug uninfected cells. The EC50 was calculated from linear log 10 plots of the percentage protection verses inhibition concentration.
Using the above-described experimental system, the ability of Triapine to potentiate the anti-HIV activity of the dideoxynucleoside analogs ddI (2′,3′-dideoxyinosine), D4T (2′,3′-dideoxydidehydrothymidine) and AZT (3′-azidothymidine) was examined in HIV-infected MT-2 cells (as described above).

`Nc1nc2c(ncn2COCCO)c(=O)[nH]1` [ACV, acyclovir]: in the series on HSV-2 (333) (HSV-2, with 0.6 μM Triapine), the “decrease in the EC90 of ACV” value was “greater than 4 fold”. Also, the figures for the 90% effect concentration (EC90) in the series with HSV-2 (333) (Human alphaherpesvirus 2) and with HSV-1 (KOS) (Human alphaherpesvirus 1) were 36.5 µM and 29.3 µM, respectively. The “decrease of the EC90 of ACV” value in the series with HSV-1 (KOS) (HSV-1, in the presence of 0.3 μM Triapine) is recorded as 10 fold; in the series on HSV-1 (KOS) (HSV-1, in the presence of 0.6 μM Triapine), “greater than 24 fold”.
As for `CC[C@@H](NC(=O)[C@@H](CC(=O)[C@@H](CC(=O)[C@@H](NC(=O)[C@H](C(C)C)N(C)C(=O)[C@H](C)CC1CCCCC1)C(C)(C)C)CC(=O)C(C)(C)C)C1(C(=O)O)CCCC1)C(C)(C)C` [BILD1633 SE], the “activity against acyclovir-resistant HSV strains” value in series [1] is reported as “had activity”.
As to `NC(=S)NN=Cc1ncccc1N` [Triapine, 3-aminopyridine-2-carboxyaldehyde thiosemicarbazone], the EC90 in the series on HSV-2 (333) and in the series on HSV-1 (KOS) was > 1 µM each time. The “concentration of Triapine reached” value in series [2] was 1000 nM. Further, the “anti-HIV interaction (isobologram)” value in the series with strain IIIB of HIV (combined with AZT) is “additive”; in the series with strain IIIB of HIV (combined with D4T), “synergistic”; in the series with strain IIIB of HIV (combined with ddI), “synergistic”. Moreover, the “solubility in aqueous solution” value in series [3] is given as “less than 0.1 mg/ml”.
For `NC(=O)NO` [hydroxyurea], in the series on HIV-infected cells, the “effects against HIV-infected cells in combination” value is “synergistic effects”.
